Reference: ChEMBL document CHEMBL3885861, “Open TG-GATES”

Species on record: Rattus norvegicus
Assay: Open TG-GATES - Regimen: Single
Format: toxicity, organism-based, Sprague-Dawley
Design: regimen Single, gender Male, age 6 weeks
Conditions: in vivo, po, 30 mg/kg, route gavage, dose level High; for APTT / Bas / Eos / Fbg / Hb / Ht / Lym / MCH / MCHC / MCV / Mono / Neu / PT / Plat / RBC / Ret / WBC: tissue Blood; for KIDNEY_L / KIDNEY_R / KIDNEY_TOTAL: tissue Kidney; for LIVER: tissue Liver; for A/G / ALP / ALT / AST / BUN / CRE / Ca / Cl / DBIL / GLC / IP / K / LDH / Na / PL / RALB / TBIL / TC / TG / TP / gamma-GTP: tissue Plasma

Structure (SMILES): CN(C)CCC(c1ccc(Cl)cc1)c1ccccn1 (configuration not stated) [CHLORPHENIRAMINE]
- TERMINAL_BW (3 h): 197.2 g
- APTT (3 h): 16.3 s
- Bas (3 h): 0%
- Eos (3 h): 0.8%
- Fbg (3 h): 287.6 mg/dL
- Hb (3 h): 13.5 g/dL
- Ht (3 h): 42.6%
- Lym (3 h): 74.2%
- MCH (3 h): 21.2 pg
- MCHC (3 h): 31.8%
- MCV (3 h): 66.5 fL
- Mono (3 h): 3.4%
- Neu (3 h): 21%
- PT (3 h): 14.8 s
- Plat (3 h): 128.4 x10_4/uL
- RBC (3 h): 640.8 x10_4/ul
- Ret (3 h): 10.2%
- WBC (3 h): 67.1 x10_2/uL
- KIDNEY_L (3 h): 0.9 g
- KIDNEY_R (3 h): 0.9 g
- KIDNEY_TOTAL (3 h): 1.7 g
- LIVER (3 h): 9 g
- A/G (3 h): 0.9
- ALP (3 h): 1548.6 IU/L
- ALT (3 h): 43.6 IU/L
- AST (3 h): 79.2 IU/L
- BUN (3 h): 8.4 mg/dL
- CRE (3 h): 0.1 mg/dL
- Ca (3 h): 10.5 mg/dL
- Cl (3 h): 108.8 meq/L
- DBIL (3 h): 0.008 mg/dL
- GLC (3 h): 183.6 mg/dL
- IP (3 h): 10 mg/dL
- K (3 h): 4.1 meq/L
- LDH (3 h): 139.4 IU/L
- Na (3 h): 143.4 meq/L
- PL (3 h): 146.6 mg/dL
- RALB (3 h): 2.6 g/dL
- TBIL (3 h): 0.046 mg/dL
- TC (3 h): 79 mg/dL
- TG (3 h): 59 mg/dL
- TP (3 h): 5.5 g/dL
- gamma-GTP (3 h): 1.2 IU/L
- TERMINAL_BW (6 h): 191.8 g
- APTT (6 h): 24.9 s
- Bas (6 h): 0%
- Eos (6 h): 0.8%
- Fbg (6 h): 302 mg/dL
- Hb (6 h): 13.8 g/dL
- Ht (6 h): 42.4%
- Lym (6 h): 73.2%
- MCH (6 h): 20.9 pg
- MCHC (6 h): 32.5%
- MCV (6 h): 64.2 fL
- Mono (6 h): 3.4%
- Neu (6 h): 21.8%
- PT (6 h): 14.7 s
- Plat (6 h): 130.7 x10_4/uL
- RBC (6 h): 659.8 x10_4/ul
- Ret (6 h): 8.9%
- WBC (6 h): 76.3 x10_2/uL
- KIDNEY_L (6 h): 0.8 g
- KIDNEY_R (6 h): 0.8 g
- KIDNEY_TOTAL (6 h): 1.6 g
- LIVER (6 h): 8.2 g
- A/G (6 h): 0.9
- ALP (6 h): 1166.8 IU/L
- ALT (6 h): 37.4 IU/L
- AST (6 h): 72.4 IU/L
- BUN (6 h): 7.6 mg/dL
- CRE (6 h): 0.1 mg/dL
- Ca (6 h): 10.5 mg/dL
- Cl (6 h): 108 meq/L
- DBIL (6 h): 0.006 mg/dL
- GLC (6 h): 181 mg/dL
- IP (6 h): 10.2 mg/dL
- K (6 h): 4.4 meq/L
- LDH (6 h): 126 IU/L
- Na (6 h): 142.4 meq/L
- PL (6 h): 138.4 mg/dL
- RALB (6 h): 2.5 g/dL
- TBIL (6 h): 0.042 mg/dL
- TC (6 h): 83.6 mg/dL
- TG (6 h): 35 mg/dL
- TP (6 h): 5.4 g/dL
- gamma-GTP (6 h): 1.4 IU/L
- TERMINAL_BW (9 h): 189.4 g
- APTT (9 h): 19.9 s
- Bas (9 h): 0%
- Eos (9 h): 1%
- Fbg (9 h): 317 mg/dL
- Hb (9 h): 13.6 g/dL
- Ht (9 h): 42.2%
- Lym (9 h): 73.8%
- MCH (9 h): 20.7 pg
- MCHC (9 h): 32.3%
- MCV (9 h): 64.2 fL
- Mono (9 h): 2.6%
- Neu (9 h): 22.2%
- PT (9 h): 14.9 s
- Plat (9 h): 115 x10_4/uL
- RBC (9 h): 656.4 x10_4/ul
- Ret (9 h): 9.1%
- WBC (9 h): 68.4 x10_2/uL
- KIDNEY_L (9 h): 0.9 g
- KIDNEY_R (9 h): 0.9 g
- KIDNEY_TOTAL (9 h): 1.7 g
- LIVER (9 h): 8 g
- A/G (9 h): 0.9
- ALP (9 h): 1297.6 IU/L
- ALT (9 h): 35.2 IU/L
- AST (9 h): 71.8 IU/L
- BUN (9 h): 7.4 mg/dL
- CRE (9 h): 0.1 mg/dL
- Ca (9 h): 10.2 mg/dL
- Cl (9 h): 106.4 meq/L
- DBIL (9 h): 0.008 mg/dL
- GLC (9 h): 171.8 mg/dL
- IP (9 h): 10.4 mg/dL
- K (9 h): 4 meq/L
- LDH (9 h): 95 IU/L
- Na (9 h): 142.4 meq/L
- PL (9 h): 145 mg/dL
- RALB (9 h): 2.5 g/dL
- TBIL (9 h): 0.056 mg/dL
- TC (9 h): 84.2 mg/dL
- TG (9 h): 45 mg/dL
- TP (9 h): 5.4 g/dL
- gamma-GTP (9 h): 1.2 IU/L
- TERMINAL_BW (24 h): 198.3 g
- APTT (24 h): 17 s
- Bas (24 h): 0.2%
- Eos (24 h): 1.2%
- Fbg (24 h): 324.6 mg/dL
- Hb (24 h): 13.6 g/dL
- Ht (24 h): 41.8%
- Lym (24 h): 79.8%
- MCH (24 h): 20.8 pg
- MCHC (24 h): 32.6%
- MCV (24 h): 63.8 fL
- Mono (24 h): 2.6%
- Neu (24 h): 15.6%
- PT (24 h): 14.8 s
- Plat (24 h): 114.6 x10_4/uL
- RBC (24 h): 655.4 x10_4/ul
- Ret (24 h): 7.8%
- WBC (24 h): 93.8 x10_2/uL
- KIDNEY_L (24 h): 0.9 g
- KIDNEY_R (24 h): 0.9 g
- KIDNEY_TOTAL (24 h): 1.8 g
- LIVER (24 h): 8 g
- A/G (24 h): 0.9
- ALP (24 h): 1572.4 IU/L
- ALT (24 h): 45.8 IU/L
- AST (24 h): 78.4 IU/L
- BUN (24 h): 12.4 mg/dL
- CRE (24 h): 0.2 mg/dL
- Ca (24 h): 10.8 mg/dL
- Cl (24 h): 109 meq/L
- DBIL (24 h): 0.012 mg/dL
- GLC (24 h): 185 mg/dL
- IP (24 h): 7.9 mg/dL
- K (24 h): 4.6 meq/L
- LDH (24 h): 120.4 IU/L
- Na (24 h): 142.4 meq/L
- PL (24 h): 145.4 mg/dL
- RALB (24 h): 2.6 g/dL
- TBIL (24 h): 0.046 mg/dL
- TC (24 h): 89.4 mg/dL
- TG (24 h): 41.4 mg/dL
- TP (24 h): 5.6 g/dL
- gamma-GTP (24 h): 1.4 IU/L
